In ChEMBL document CHEMBL1142237, “Cytotoxic triterpenoid saponins of Albizia gummifera from the Madagascar rain forest” (J Nat Prod, 2007):

How the values were obtained:
Assay type in all cases: functional, cell-based
A2780 = assay: Antiproliferative activity against human A2780 cells after 96 hrs; conditions: A2780, 96 h
MDA-MB-435 = assay: Antiproliferative activity against human MDA-MB-435 cells after 96 hrs; conditions: MDA-MB-435, 96 h
HT-29 = assay: Antiproliferative activity against human HT29 cells after 96 hrs; conditions: HT-29, 96 h
[1] = Antiproliferative activity against human H522-T1 cells after 96 hrs; conditions: H522-T1, 96 h
U-937 = assay: Antiproliferative activity against human U937 cells after 96 hrs; conditions: U-937, 96 h

IC50 (A2780): 260 nM
IC50 (MDA-MB-435): 480 nM
IC50 (HT-29): 610 nM
IC50 (U-937): 290 nM
SMILES: C=C[C@](C)(CC/C=C(\C)C(=O)O[C@H]1[C@H](O)[C@@H](O)[C@H](O[C@](C)(C=C)CC/C=C(\C)C(=O)O[C@H]2[C@H](O)[C@@H](O)[C@H](O[C@](C)(C=C)CC/C=C(/C)C(=O)O[C@H]3C[C@]4(C(=O)O[C@@H]5O[C@H](CO)[C@@H](O)[C@H](O)[C@H]5O[C@@H]5O[C@@H](C)[C@H](O[C@@H]6OC[C@@H](O)[C@H](O)[C@H]6O)[C@@H](O)[C@H]5O)[C@H](O)C[C@]5(C)C(=CC[C@@H]6[C@@]7(C)CC[C@H](O[C@@H]8O[C@H](CO[C@@H]9O[C@H](C)[C@H](O)[C@H](O)[C@H]9O)[C@@H](O)[C@H](O)[C@H]8O[C@@H]8O[C@H](CO)[C@@H](O)[C@H](O)[C@H]8O)C(C)(C)C7CC[C@]65C)[C@@H]4CC3(C)C)O[C@@H]2C)O[C@@H]1C)O[C@@H]1O[C@H](C)[C@@H](O)[C@H](O)[C@H]1O (stereo not given in full) [GUMMIFERAOSIDE C]
IC50 [1]: 640 nM
